Assay results as given in the supplement of paper PMC10307832.

Experiments:
Assay in all cases: relative viability (nuclei count vs DMSO), 5 days (fraction); higher = more cells survive
LCLC-103H = system: LCLC-103H
Summary of the method: (§1)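 Relative viability divides the nuclei count in treated wells by that in vehicle wells. Lung cancer cell lines were seeded in 1536-well plates, dosed by pin tool the next day, and fixed and stained after 5 days in one step with final 0.05% Triton X-100, 1% formaldehyde and 1 ug/ml Hoechst. Dosing was a single drug or a fixed anchor-drug dose plus five library-drug doses (not always all listed) in √10 steps, and values are medians of duplicate plates imaged at 4×.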

LXF-289 = system: LXF-289
Summary of the method: as §1

NCI-H1355 = system: NCI-H1355
Summary of the method: as §1

NCI-H1563 = system: NCI-H1563
Summary of the method: as §1

NCI-H1651 = system: NCI-H1651
Summary of the method: as §1

NCI-H1755 = system: NCI-H1755
Summary of the method: as §1

NCI-H1792 = system: NCI-H1792
Summary of the method: as §1

NCI-H1915 = system: NCI-H1915
Summary of the method: as §1

NCI-H2347 = system: NCI-H2347
Summary of the method: as §1

NCI-H3122 = system: NCI-H3122
Summary of the method: as §1

NCI-H322M = system: NCI-H322M
Summary of the method: as §1

NCI-H441 = system: NCI-H441
Summary of the method: as §1

NCI-H460 = system: NCI-H460
Summary of the method: as §1

NCI-H520 = system: NCI-H520
Summary of the method: as §1

NCI-H522 = system: NCI-H522
Summary of the method: as §1

NCI-H596 = system: NCI-H596
Summary of the method: as §1

NCI-H661 = system: NCI-H661
Summary of the method: as §1

NCI-H727 = system: NCI-H727
Summary of the method: as §1

PC-14 = system: PC-14
Summary of the method: as §1

RERF-LC-KJ = system: RERF-LC-KJ
Summary of the method: as §1

SK-MES-1 = system: SK-MES-1
Summary of the method: as §1

SW 900 = system: SW 900
Summary of the method: as §1

In the case of `Nc1ccn([C@@H]2O[C@H](CO)[C@@H](O)[C@@H]2O)c(=O)n1` [Cytarabine] + N=C(N)NC(=N)NCCc1ccccc1 [Phenformin] (partner 250 µM), the relative viability (LCLC-103H; first compound 0.005 µM) is reported as 0.332, the relative viability (LCLC-103H; first compound 0.01581 µM) is reported as 0.365 and the relative viability (LCLC-103H; first compound 0.05 µM) is reported as 0.335. It also gave a relative viability (LCLC-103H; first compound 0.1581 µM) of 0.31, a relative viability (LCLC-103H; first compound 0.5 µM) of 0.311 and a relative viability (LXF-289; first compound 0.005 µM) of 0.413. It also gave a relative viability (LXF-289; first compound 0.01581 µM) of 0.406, a relative viability (LXF-289; first compound 0.05 µM) of 0.341 and a relative viability (LXF-289; first compound 0.1581 µM) of 0.129. For the same compound, the relative viability (LXF-289; first compound 0.5 µM) was 0.0821, the relative viability (NCI-H1355; first compound 0.005 µM) was 0.353 and the relative viability (NCI-H1355; first compound 0.01581 µM) was 0.428. The relative viability (NCI-H1355; first compound 0.05 µM) was 0.382, the relative viability (NCI-H1355; first compound 0.1581 µM) was 0.254 and the relative viability (NCI-H1355; first compound 0.5 µM) was 0.261. It also gave a relative viability (NCI-H1563; first compound 0.005 µM) of 0.548, a relative viability (NCI-H1563; first compound 0.01581 µM) of 0.642 and a relative viability (NCI-H1563; first compound 0.05 µM) of 0.706. The relative viability (NCI-H1563; first compound 0.1581 µM) was 0.56, the relative viability (NCI-H1563; first compound 0.5 µM) was 0.567 and the relative viability (NCI-H1651; first compound 0.005 µM) was 0.304. It also gave a relative viability (NCI-H1651; first compound 0.01581 µM) of 0.346, a relative viability (NCI-H1651; first compound 0.05 µM) of 0.319 and a relative viability (NCI-H1651; first compound 0.1581 µM) of 0.2. The relative viability (NCI-H1651; first compound 0.5 µM) was 0.18, the relative viability (NCI-H1755; first compound 0.005 µM) was 0.621 and the relative viability (NCI-H1755; first compound 0.01581 µM) was 0.413. It also gave a relative viability (NCI-H1755; first compound 0.05 µM) of 0.466, a relative viability (NCI-H1755; first compound 0.1581 µM) of 0.274 and a relative viability (NCI-H1755; first compound 0.5 µM) of 0.236. For the same compound, the relative viability (NCI-H1792; first compound 0.01581 µM) was 0.107, the relative viability (NCI-H1792; first compound 0.05 µM) was 0.16 and the relative viability (NCI-H1792; first compound 0.1581 µM) was 0.196. The relative viability (NCI-H1792; first compound 0.5 µM) was 0.133, the relative viability (NCI-H1915; first compound 0.005 µM) was 0.324 and the relative viability (NCI-H1915; first compound 0.01581 µM) was 0.328. For the same compound, the relative viability (NCI-H1915; first compound 0.05 µM) was 0.329, the relative viability (NCI-H1915; first compound 0.1581 µM) was 0.268 and the relative viability (NCI-H1915; first compound 0.5 µM) was 0.245. For the same compound, the relative viability (NCI-H2347; first compound 0.005 µM) was 0.381, the relative viability (NCI-H2347; first compound 0.01581 µM) was 0.383 and the relative viability (NCI-H2347; first compound 0.05 µM) was 0.296. For the same compound, the relative viability (NCI-H2347; first compound 0.1581 µM) was 0.273, the relative viability (NCI-H2347; first compound 0.5 µM) was 0.291 and the relative viability (NCI-H3122; first compound 0.005 µM) was 0.347. The relative viability (NCI-H3122; first compound 0.01581 µM) was 0.323, the relative viability (NCI-H3122; first compound 0.05 µM) was 0.293 and the relative viability (NCI-H3122; first compound 0.1581 µM) was 0.244. The relative viability (NCI-H3122; first compound 0.5 µM) was 0.18, the relative viability (NCI-H322M; first compound 0.005 µM) was 0.704 and the relative viability (NCI-H322M; first compound 0.01581 µM) was 0.614. For the same compound, the relative viability (NCI-H322M; first compound 0.05 µM) was 0.53, the relative viability (NCI-H322M; first compound 0.1581 µM) was 0.372 and the relative viability (NCI-H322M; first compound 0.5 µM) was 0.337. The relative viability (NCI-H441; first compound 0.005 µM) was 0.79, the relative viability (NCI-H441; first compound 0.01581 µM) was 0.655 and the relative viability (NCI-H441; first compound 0.05 µM) was 0.783. For the same compound, the relative viability (NCI-H441; first compound 0.1581 µM) was 0.399, the relative viability (NCI-H441; first compound 0.5 µM) was 0.298 and the relative viability (NCI-H460; first compound 0.005 µM) was 0.309. The relative viability (NCI-H460; first compound 0.01581 µM) was 0.248, the relative viability (NCI-H460; first compound 0.05 µM) was 0.114 and the relative viability (NCI-H460; first compound 0.1581 µM) was 0.0419. The relative viability (NCI-H460; first compound 0.5 µM) was 0.0341, the relative viability (NCI-H520; first compound 0.005 µM) was 0.558 and the relative viability (NCI-H520; first compound 0.01581 µM) was 0.314. The relative viability (NCI-H520; first compound 0.05 µM) was 0.658, the relative viability (NCI-H520; first compound 0.1581 µM) was 0.383 and the relative viability (NCI-H520; first compound 0.5 µM) was 0.323. For the same compound, the relative viability (NCI-H522; first compound 0.005 µM) was 0.669, the relative viability (NCI-H522; first compound 0.01581 µM) was 0.602 and the relative viability (NCI-H522; first compound 0.05 µM) was 0.554. It also gave a relative viability (NCI-H522; first compound 0.1581 µM) of 0.489, a relative viability (NCI-H522; first compound 0.5 µM) of 0.449 and a relative viability (NCI-H596; first compound 0.005 µM) of 0.801. For the same compound, the relative viability (NCI-H596; first compound 0.01581 µM) was 0.613, the relative viability (NCI-H596; first compound 0.05 µM) was 0.694 and the relative viability (NCI-H596; first compound 0.1581 µM) was 0.624. It also gave a relative viability (NCI-H596; first compound 0.5 µM) of 0.447, a relative viability (NCI-H661; first compound 0.005 µM) of 0.264 and a relative viability (NCI-H661; first compound 0.01581 µM) of 0.254. For the same compound, the relative viability (NCI-H661; first compound 0.05 µM) was 0.239, the relative viability (NCI-H661; first compound 0.1581 µM) was 0.23 and the relative viability (NCI-H661; first compound 0.5 µM) was 0.237. It also gave a relative viability (NCI-H727; first compound 0.005 µM) of 0.451, a relative viability (NCI-H727; first compound 0.01581 µM) of 0.479 and a relative viability (NCI-H727; first compound 0.05 µM) of 0.486. The relative viability (NCI-H727; first compound 0.1581 µM) was 0.406, the relative viability (NCI-H727; first compound 0.5 µM) was 0.429 and the relative viability (PC-14; first compound 0.005 µM) was 0.499. For the same compound, the relative viability (PC-14; first compound 0.01581 µM) was 0.316, the relative viability (PC-14; first compound 0.05 µM) was 0.259 and the relative viability (PC-14; first compound 0.1581 µM) was 0.0817. For the same compound, the relative viability (PC-14; first compound 0.5 µM) was 0.0908, the relative viability (RERF-LC-KJ; first compound 0.005 µM) was 0.381 and the relative viability (RERF-LC-KJ; first compound 0.01581 µM) was 0.369. The relative viability (RERF-LC-KJ; first compound 0.05 µM) was 0.308, the relative viability (RERF-LC-KJ; first compound 0.1581 µM) was 0.298 and the relative viability (RERF-LC-KJ; first compound 0.5 µM) was 0.274. For the same compound, the relative viability (SK-MES-1; first compound 0.005 µM) was 0.44, the relative viability (SK-MES-1; first compound 0.01581 µM) was 0.389 and the relative viability (SK-MES-1; first compound 0.05 µM) was 0.212. For the same compound, the relative viability (SK-MES-1; first compound 0.1581 µM) was 0.206, the relative viability (SK-MES-1; first compound 0.5 µM) was 0.178 and the relative viability (SW 900; first compound 0.005 µM) was 0.472. For the same compound, the relative viability (SW 900; first compound 0.01581 µM) was 0.395, the relative viability (SW 900; first compound 0.05 µM) was 0.367 and the relative viability (SW 900; first compound 0.1581 µM) was 0.18. The relative viability (SW 900; first compound 0.5 µM) was 0.155.
